Experimental findings from US20210121380A1, “Amino Acid Containing Oral Care Composition for Treating Caries By Reducing Lactic Acid Release in Oral Biofilms” (3M INNOVATIVE PROPERTIES COMPANY, priority 2018, published 2021) are described below.

The subject of assay [1] is human saliva derived microcosm biofilm. The experiment in a line: Mass of biofilm (wet biomass) grown in MCM human derived saliva biofilm system. In kind it is cell-based. Particulars: read-out: Biomass [% from control]; for activity at 2.7 %: Example 1, amino acid 2.7 wt. %. Here is the method:
(§1) A composition was prepared by dissolving the amino acid to be tested in de-ionized water in the given amount.
(§2) Biofilms were grown in a MCM (mucine containing medium plus 1% sucrose) human derived saliva biofilm system.
(§3) A general procedure is summarized below: • 1. Four-hour incubation of bovine sample disks with saliva-mcm (mucine containing medium plus 1% sucrose) at 37° C. • 2. Fresh medium (MCM with different amino acids) for 2-hour incubation at 37° C. • 3. Fresh medium (MCM with different amino acids) for storage over night at 37° C. • 4. Second Day: Fresh medium (MCM with different amino acids) after 22 and 24 hours. • 5. Samples were taken after 26 hours biofilm growth for measurements of lactic acid release and biomass evaluation.
The mass of biofilm was determined as follows: Filter papers are put into 1.5 ml-reaction tubes and were labelled and weighted. The biofilm, that was grown on the enamel disks is carefully wiped off with filter paper. The filter paper containing the wet biofilms were placed back into the respective reaction tube and re-weighted. The wet biomass is calculated from the difference in weight.
(§4) In this experiment, the MCM human derived saliva biofilm system was used. The biofilms were grown for 26 hours in continuous presence of sucrose and different amino acids.

Assay [2] has the same test system. The experiment in a line: Lactic acid release of biofilm grown in MCM human derived saliva biofilm system (LDH-NAD-PMS-MTT enzyme assay). Particulars: for activity at 2.7 %: amino acid 2.7 wt. %; for effectiveness for reducing the lactic-acid release of bacteria in a biofilm (in words): reduction by more than 40% vs control considered effective. In kind it is cell-based, lactic acid producing bacteria (human derived saliva). Here is the method: as §1, §2, §3
To determine the activity of the grown biofilm, the production of lactic acid in the supernatant (0.75 ml PBS-solution with 5% sucrose per each sample disc) is measured by using the Lactic acid dehydrogenase (LDH)—Nicotinamid-adenin-dinukleotid (NAD)—Phenazine Methosulphate (PMS)—Thiazolyl blue tetrazolium bromide (MTT)—enzyme assay. To guarantee that only freshly produced lactic acid is determined, the samples are washed (in three steps, each lasting 30 sec) in 1.5 ml PBS-solution. The production of lactic acid is evaluated by measuring the lactic acid amount at given points for 30 min. The determination points are: 0 min 15 min and 30 min. For each reading point a sample of 50 μl is taken out of each well. The lactic acid amount at each reading point is determined by using the enzyme assay described above. Lactic acid amount is calculated according to the lactic acid calibration curve.
as §4

Where [3] appears, read: Homo sapiens, Example 1, 26 h biofilm growth, continuous presence of sucrose and amino acid, read-out: Lactic Acid Release after 30 min [% from control].
The mark [4] stands for this setting: Example 1, amino acid 4.0 wt. %, 26 h biofilm growth.
The mark [5] stands for this setting: Homo sapiens, Example 1, amino acid 4.0 wt. %, 26 h biofilm growth, continuous presence of sucrose and amino acid, read-out: Lactic Acid Release after 30 min [% from control].
Setting [6] is: 26 h, Example 1, amino acid 8.0 wt. %, 26 h biofilm growth.
[7] abbreviates: Homo sapiens, Example 1, amino acid 8.0 wt. %, 26 h biofilm growth, continuous presence of sucrose and amino acid, read-out: Lactic Acid Release after 30 min [% from control].

Molecules are shown by their SMILES.

As to `CC(C)C[C@H](N)C(=O)O` [Leucine], the activity at 2.7 % amounted to 85.9% in assay [1] (26 h biofilm growth) and 36.7% in assay [2] (setting [3]). Further, the “effectiveness for reducing the lactic-acid release of bacteria in a biofilm (in words)” value in assay [2] was “useful”.
As for `C[C@H](N)C(=O)O` [Alanine, reference compound], the activity at 4 % was 141% in assay [1] (setting [4]) and 99.7% in assay [2] (setting [5]).
For the molecule `N[C@@H](CC(=O)O)C(=O)O` [Aspartic acid, reference compound], the activity at 0.1125 % in assay [1] (Example 1, amino acid 0.1125 wt. %, 26 h biofilm growth) came to 82.1%; in assay [2] (Homo sapiens, Example 1, amino acid 0.1125 wt. %, 26 h biofilm growth, continuous presence of sucrose and amino acid, read-out: Lactic Acid Release after 30 min [% from control]), 101%. In addition, the “effectiveness for reducing the lactic-acid release of bacteria in a biofilm (in words)” value in assay [2] is “not effective”.
Consider `N[C@@H](CS)C(=O)O` [Cysteine, reference compound], for which the activity at 0.625 % in assay [1] (Example 1, amino acid 0.625 wt. %, 26 h biofilm growth) worked out at 56.2%; in assay [2] (Homo sapiens, Example 1, amino acid 0.625 wt. %, 26 h biofilm growth, continuous presence of sucrose and amino acid, read-out: Lactic Acid Release after 30 min [% from control]), 85.8%.
Turning to `N[C@@H](Cc1ccccc1)C(=O)O` [Phenylalanine], the activity at 0.5 % in assay [1] (26 h, Example 3, phenylalanine 0.5 wt. %) came out at 181%; in assay [2] (Homo sapiens, 0.5 h, Example 3, phenylalanine 0.5 wt. %, continuous presence with sucrose, read-out: Lactic Acid Release after 30 min [% from control]), 45.9%. Further, the activity at 1 % in assay [1] (26 h, Example 3, phenylalanine 1.0 wt. %) worked out at 124%; in assay [2] (Homo sapiens, 0.5 h, Example 3, phenylalanine 1.0 wt. %, continuous presence with sucrose, read-out: Lactic Acid Release after 30 min [% from control]), 32.1%. For the same molecule, the activity at 1.5 % in assay [1] (26 h, Example 3, phenylalanine 1.5 wt. %) is 92.7%; in assay [2] (Homo sapiens, 0.5 h, Example 3, phenylalanine 1.5 wt. %, continuous presence with sucrose, read-out: Lactic Acid Release after 30 min [% from control]), 16.7%. Moreover, the activity at 2 % in assay [1] (26 h, Example 3, phenylalanine 2.0 wt. %) stood at 96.5%; in assay [2] (Homo sapiens, 0.5 h, Example 3, phenylalanine 2.0 wt. %, continuous presence with sucrose, read-out: Lactic Acid Release after 30 min [% from control]), 12.1%. Moreover, the activity at 2.5 % was determined as 66.9% in assay [1] (26 h, Example 3, phenylalanine 2.5 wt. %) and 3.5% in assay [2] (Homo sapiens, 0.5 h, Example 3, phenylalanine 2.5 wt. %, continuous presence with sucrose, read-out: Lactic Acid Release after 30 min [% from control]). Besides, the activity at 2.7 % in assay [1] (26 h biofilm growth) was found to be 136%; in assay [2] (setting [3]), 8.6%. For the same molecule, the “effectiveness for reducing the lactic-acid release of bacteria in a biofilm (in words)” value in assay [2] is “useful”.
Take `O=C(O)[C@@H]1CCCN1` [Proline, reference compound]: the activity at 8 % is 110% in assay [1] (setting [6]) and 74.7% in assay [2] (setting [7]). In addition, the “effectiveness for reducing the lactic-acid release of bacteria in a biofilm (in words)” value in assay [2] is listed as “not effective”.
Take `NC(=O)C[C@H](N)C(=O)O` [Asparagine, reference compound]: the activity at 0.5 % in assay [1] (Example 1, amino acid 0.5 wt. %, 26 h biofilm growth) amounted to 102%; in assay [2] (Homo sapiens, Example 1, amino acid 0.5 wt. %, 26 h biofilm growth, continuous presence of sucrose and amino acid, read-out: Lactic Acid Release after 30 min [% from control]), 94.7%.
On to `N[C@@H](CO)C(=O)O` [Serine], for which the activity at 2.7 % in assay [1] (26 h biofilm growth) came out at 84.6%; in assay [2] (setting [3]), 11.8%. Besides, in assay [2], the “effectiveness for reducing the lactic-acid release of bacteria in a biofilm (in words)” value is listed as “useful”.
With `N[C@@H](Cc1c[nH]c2ccccc12)C(=O)O` [Tryptophan], the activity at 0.25 % in assay [1] (26 h) worked out at 181%. In assay [2], the “effectiveness for reducing the lactic-acid release of bacteria in a biofilm (in words)” value is given as “useful”.
On to `C[C@@H](O)[C@H](N)C(=O)O` [Threonine], for which the activity at 8 % in assay [1] (Example 1, amino acid 8.0 wt. %, 26 h biofilm growth) turned out to be 190%; in assay [2] (setting [7]) it was 54.6%. For the same molecule, the “effectiveness for reducing the lactic-acid release of bacteria in a biofilm (in words)” value in assay [2] is “useful”.
For `N[C@@H](Cc1ccc(O)cc1)C(=O)O` [Tyrosine, reference compound], the activity at 0.0095 % stood at 95.3% in assay [1] (Example 1, amino acid 0.0095 wt. %, 26 h biofilm growth); 112% in assay [2] (Homo sapiens, Example 1, amino acid 0.0095 wt. %, 26 h biofilm growth, continuous presence of sucrose and amino acid, read-out: Lactic Acid Release after 30 min [% from control]). The “effectiveness for reducing the lactic-acid release of bacteria in a biofilm (in words)” value in assay [2] is listed as “not effective”.
For `N[C@@H](Cc1c[nH]cn1)C(=O)O` [Histidine, reference compound], the activity at 3.8 % in assay [1] (Example 1, amino acid 3.8 wt. %, 26 h biofilm growth) was determined as 106%; in assay [2] (Homo sapiens, Example 1, amino acid 3.8 wt. %, 26 h biofilm growth, continuous presence of sucrose and amino acid, read-out: Lactic Acid Release after 30 min [% from control]) it was 150%. Further, the “effectiveness for reducing the lactic-acid release of bacteria in a biofilm (in words)” value in assay [2] is on record as “not effective”.
For `N[C@@H](CCC(=O)O)C(=O)O` [Glutamic acid, reference compound], the activity at 0.215 % in assay [1] (Example 1, amino acid 0.215 wt. %, 26 h biofilm growth) came to 80.2%; in assay [2] (Homo sapiens, Example 1, amino acid 0.215 wt. %, 26 h biofilm growth, continuous presence of sucrose and amino acid, read-out: Lactic Acid Release after 30 min [% from control]), 90.4%.
For the molecule `CC(C)[C@H](N)C(=O)O` [Valine], the activity at 5 % in assay [1] (Example 1, amino acid 5.0 wt. %, 26 h biofilm growth) was 209%; in assay [2] (Homo sapiens, Example 1, amino acid 5.0 wt. %, 26 h biofilm growth, continuous presence of sucrose and amino acid, read-out: Lactic Acid Release after 30 min [% from control]), 42.1%. Also, the “effectiveness for reducing the lactic-acid release of bacteria in a biofilm (in words)” value in assay [2] is on record as “useful”.
Turning to `CC[C@H](C)[C@H](N)C(=O)O` [Isoleucine], the activity at 4 % in assay [1] (setting [4]) is 104%; in assay [2] (setting [5]), 21.9%. In addition, the “effectiveness for reducing the lactic-acid release of bacteria in a biofilm (in words)” value in assay [2] is recorded as “useful”.
For the molecule `N=C(N)NCCC[C@H](N)C(=O)O` [Arginine, reference compound], the activity at 8 % in assay [1] (26 h) was 247%. For the same molecule, the “effectiveness for reducing the lactic-acid release of bacteria in a biofilm (in words)” value in assay [2] is recorded as “not effective”.
With `NC(=O)CC[C@H](N)C(=O)O` [glutamine, reference compound], in assay [2], the “effectiveness for reducing the lactic-acid release of bacteria in a biofilm (in words)” value is “not effective”.
For `CSCC[C@H](N)C(=O)O` [Methionine], the activity at 4.8 % in assay [1] (26 h, Example 1, amino acid 4.8 wt. %, 26 h biofilm growth) is 84.9%; in assay [2] (Homo sapiens, Example 1, amino acid 4.8 wt. %, 26 h biofilm growth, continuous presence of sucrose and amino acid, read-out: Lactic Acid Release after 30 min [% from control]), 26.9%. Also, the “effectiveness for reducing the lactic-acid release of bacteria in a biofilm (in words)” value in assay [2] is reported as “useful”.
As for `NCC(=O)O` [Glycine], the activity at 8 % in assay [1] (setting [6]) came out at 77.2%; in assay [1] (26 h, Example 2, glycine 8.0 wt. %), 42.2%; in assay [2] (Homo sapiens, 0.5 h, Example 2, glycine 8.0 wt. %, continuous presence with sucrose, read-out: Lactic Acid Release after 30 min [% from control]) it was 5.6%; in assay [2] (setting [7]), 5.7%. Further, the activity at 0.5 % in assay [1] (26 h, Example 2, glycine 0.5 wt. %) came to 143%; in assay [2] (Homo sapiens, 0.5 h, Example 2, glycine 0.5 wt. %, continuous presence with sucrose, read-out: Lactic Acid Release after 30 min [% from control]), 97.5%. The activity at 1 % came to 146% in assay [1] (26 h, Example 2, glycine 1.0 wt. %) and 51.6% in assay [2] (Homo sapiens, 0.5 h, Example 2, glycine 1.0 wt. %, continuous presence with sucrose, read-out: Lactic Acid Release after 30 min [% from control]). The activity at 2 % is 96.7% in assay [1] (26 h, Example 2, glycine 2.0 wt. %) and 32.3% in assay [2] (Homo sapiens, 0.5 h, Example 2, glycine 2.0 wt. %, continuous presence with sucrose, read-out: Lactic Acid Release after 30 min [% from control]). For the same molecule, the activity at 4 % was determined as 56.2% in assay [1] (26 h, Example 2, glycine 4.0 wt. %) and 1.6% in assay [2] (Homo sapiens, 0.5 h, Example 2, glycine 4.0 wt. %, continuous presence with sucrose, read-out: Lactic Acid Release after 30 min [% from control]). Also, the “effectiveness for reducing the lactic-acid release of bacteria in a biofilm (in words)” value in assay [2] was “useful”.
For `NCCCC[C@H](N)C(=O)O` [Lysine], the activity at 8 % in assay [1] (26 h) turned out to be 87.8%. Further, the “effectiveness for reducing the lactic-acid release of bacteria in a biofilm (in words)” value in assay [2] is on record as “useful”.
